Tested on: SARS-CoV-2 M protein level
Assay type: cell-based, human

Structure (SMILES): CCN(CC)CCCC(C)Nc1ccnc2cc(Cl)ccc12 (stereo not drawn) [CQ, chloroquine]
- IMβ3-5-promoted degradation of M, VP2 and PB1-F2: blocked
- decrease in M protein levels induced by SQSTM1: rescued

Structure (SMILES): COC[C@H]1OC(=O)c2coc3c2[C@@]1(C)C1=C(C3=O)[C@@H]2CCC(=O)[C@@]2(C)C[C@H]1OC(C)=O [wortmannin]
- decrease in M protein levels induced by SQSTM1: rescued

Source: paper PMC11484861 (Nature Communications, 2024)
